Measured values from PubChem BioAssay (NCI).
Where “and” joins values, the source holds several entries; their conditions need not be identical. Equal entries are not always repeated.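 Compound exposure: 48 hours, 5 concentrations, 96-well plates. The concentration for 50% growth inhibition is given as GI50. The concentration for full growth arrest is given as TGI.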

Experiments:
Test in all cases: NCI anticancer screen, dose series, 48 h
[1] = tested on: 786-0 renal
[2] = tested on: A498 renal
[3] = tested on: A549 NSCLC
[4] = tested on: ACHN renal
[5] = tested on: BT-549 breast
[6] = tested on: CCRF-CEM leukemia
[7] = tested on: COLO 205 colon
[8] = tested on: DU-145 prostate
[9] = tested on: EKVX NSCLC
[10] = tested on: HCC-2998 colon
[11] = tested on: HCT-15 colon
[12] = tested on: HL-60(TB) leukemia
[13] = tested on: HOP-62 NSCLC
[14] = tested on: HOP-92 NSCLC
[15] = tested on: HS 578T breast
[16] = tested on: HT29 colon
[17] = tested on: IGROV1 ovarian
[18] = tested on: K-562 leukemia
[19] = tested on: KM12 colon
[20] = tested on: LOX IMVI melanoma
[21] = tested on: M14 melanoma
[22] = tested on: MALME-3M melanoma
[23] = tested on: MCF7 breast
[24] = tested on: MDA-MB-231 breast
[25] = tested on: MDA-N
[26] = tested on: MOLT-4 leukemia
[27] = tested on: NCI-H226 lung
[28] = tested on: NCI-H23 lung
[29] = tested on: NCI-H460 lung
[30] = tested on: NCI-H522 lung
[31] = tested on: NCI/ADR-RES ovarian
[32] = tested on: OVCAR-4 ovarian
[33] = tested on: OVCAR-5 ovarian
[34] = tested on: OVCAR-8 ovarian
[35] = tested on: PC-3 prostate
[36] = tested on: RPMI-8226 leukemia
[37] = tested on: RXF 393 renal
[38] = tested on: SF-268 CNS
[39] = tested on: SF-539 CNS
[40] = tested on: SK-MEL-2 melanoma
[41] = tested on: SK-MEL-28 melanoma
[42] = tested on: SK-MEL-5 melanoma
[43] = tested on: SK-OV-3 ovarian
[44] = tested on: SN12C renal
[45] = tested on: SNB-19 CNS
[46] = tested on: SNB-75 CNS
[47] = tested on: SR leukemia
[48] = tested on: SW-620 colon
[49] = tested on: T-47D breast
[50] = tested on: TK-10 renal
[51] = tested on: U251 CNS
[52] = tested on: UACC-257 melanoma
[53] = tested on: UACC-62 melanoma

O=c1cc(-c2ccccc2F)[nH]c2ccc(N3CCCC3)cc12
GI50 [1]: < 1 nM
TGI [1]: > 100000 nM
GI50 [2]: 7320 nM
TGI [2]: > 100000 nM
GI50 [3]: < 1 nM
TGI [3]: > 100000 nM
TGI [4]: > 100000 nM
TGI [5]: > 100000 nM
GI50 [6]: < 1 nM
TGI [6]: > 100000 nM
GI50 [7]: < 1 nM
GI50 [8]: < 1 nM
GI50 [9]: > 100000 nM
GI50 [10]: 20.4 nM
TGI [10]: 455 nM and 54.6 nM
GI50 [11]: < 1 nM
GI50 [12]: < 1 nM
GI50 [13]: < 1 nM
TGI [13]: > 100000 nM
TGI [14]: > 100000 nM
GI50 [15]: < 1 nM
GI50 [16]: < 1 nM
GI50 [17]: < 1 nM
GI50 [18]: < 1 nM
TGI [18]: > 100000 nM
GI50 [19]: < 1 nM
GI50 [20]: < 1 nM
TGI [20]: > 100000 nM
GI50 [21]: < 1 nM
TGI [21]: > 100000 nM
TGI [22]: > 100000 nM
GI50 [23]: 488 nM
TGI [23]: > 100000 nM
GI50 [24]: > 100000 nM
TGI [24]: > 100000 nM
GI50 [25]: < 1 nM
GI50 [26]: < 1 nM
TGI [26]: > 100000 nM
GI50 [27]: < 1 nM
TGI [27]: 21.5 nM
GI50 [28]: 199 nM
GI50 [29]: < 1 nM
GI50 [30]: < 1 nM
GI50 [31]: < 1 nM
TGI [32]: 55300 nM
GI50 [33]: 2530 nM
TGI [33]: > 100000 nM
GI50 [34]: < 1 nM
TGI [35]: > 100000 nM
GI50 [36]: < 1 nM
GI50 [37]: < 1 nM
TGI [37]: > 100000 nM
GI50 [38]: < 1 nM
TGI [39]: 13.4 nM
TGI [40]: > 100000 nM
GI50 [41]: 82300 nM
TGI [41]: > 100000 nM
GI50 [42]: < 1 nM
GI50 [43]: < 1 nM
GI50 [44]: < 1 nM
TGI [44]: > 100000 nM
GI50 [45]: < 1 nM
TGI [45]: 72.5 nM
TGI [46]: > 100000 nM
GI50 [47]: < 1 nM
TGI [48]: > 100000 nM
GI50 [49]: > 100000 nM
TGI [49]: > 100000 nM
GI50 [50]: 74900 nM
TGI [50]: > 100000 nM
GI50 [51]: < 1 nM
TGI [52]: > 100000 nM
GI50 [53]: < 1 nM
TGI [53]: > 100000 nM
